Results as given in patent US20090270419A1, “COMBINATIONS OF CLASS-I SPECIFIC HISTONE DEACETYLASE INHIBITORS WITH PROTEASOME INHIBITORS” (priority 2006, published 2009).

Experiments:
[1] = system: acetylation of tubulin and induction of Hsp 70 in A2780 ovarian carcinoma cells; experiment: Acetylation of tubulin and induction of Hsp 70 (Western blot, HDAC 6 readout); type: cell-based, human; settings: 24 h, 0-3000 nM tested
Method: Total cell lysates were prepared and analysed by SDS-PAGE. […] Hsp 70 protein was detected with an antibody from Stressgen (Cat. nr. SPA-810), followed by ECL detection. Appropriate dilutions of antibodies were incubated for either 1-2 h at room temperature or overnight at 4° C. In order to control for equal loading, blots were stripped and re-probed with mouse monoclonal anti-actin IgM (Ab-1, Oncogene Research Products). […] Protein-antibody complexes were then visualized by chemiluminescence (Pierce Chemical Co) or fluorescence (Odyssey) according to the manufacturer's instructions. The experiments were performed three times.

[2] = system: acetylation of histone H3 and H4 and induction of p21waf1,cip1 in A2780 ovarian carcinoma cells; experiment: Acetylation of cellular HDAC 1 substrates and induction of p21waf1,cip1 (Western blot); type: cell-based, human; settings: 24 h, 0-3000 nM tested
Method: Total cell lysates were prepared and analysed by SDS-PAGE. Levels of acetylated H3 and H4 histones, total level of H3 proteins and levels p21^waf1, cip1 protein were detected using appropriate dilutions of rabbit polyclonal and mouse monoclonal antibodies, followed by enhanced chemoluminescence (ECL) detection. […] Antibodies were incubated for either 1-2 h at room temperature or overnight at 4° C. […] Protein-antibody complexes were then visualized by chemiluminescence (Pierce Chemical Co) or fluorescence (Odyssey) according to the manufacturer's instructions. The experiments were performed three times.

[3] = system: LAMA-84; settings: LAMA-84, chronic myeloid leukemia in blast crisis; 72 hr, MTS
Method: (§1) Tumor cells were grown as cell suspension in the corresponding appropriate culture medium at 37° C. in a humidified 5% CO2 incubator. Mycoplasma-free tumor cells were seeded in 96-well flat-bottom microtitration plates and incubated at 37° C. for 24 hr in culture medium containing 10% FCS. […] Cells were then incubated for an additional 72 hr.

[4] = system: THP-1; settings: THP-1, acute monocytic leukemia; 72 hr, MTS
Method: as §1

[5] = system: Raji; settings: Burkitt's lymphoma, 72 hr, MTS
Method: as §1

[6] = system: Ramos; settings: Burkitt's lymphoma, 72 hr, MTS
Method: as §1

[7] = system: SUP-B15; settings: SUP-B15, acute lymphoblastic leukemia; 72 hr, MTS
Method: as §1

[8] = system: ARH-77; settings: ARH-77, myeloma; 72 hr, MTS
Method: as §1

[9] = system: MOLT-4; settings: MOLT-4, acute lymphoblastic leukemia; 72 hr, MTS
Method: as §1

[10] = system: U-937; settings: U-937, lymphoma; 72 hr, MTS
Method: as §1

[11] = system: EHEB; settings: chronic B cell leukemia, 72 hr, MTS
Method: as §1

[12] = system: HL-60; settings: HL-60, acute promyelocytic leukemia; 72 hr, MTS
Method: as §1

[13] = system: K-562; settings: K-562, chronic myeloid leukemia; 72 hr, MTS
Method: as §1

[14] = system: KG-1; settings: KG-1, acute myelogenous leukemia; 72 hr, MTS
Method: as §1

[15] = system: BV-173; settings: BV-173, chronic B cell leukemia; 72 hr, MTS
Method: as §1

[16] = system: OCI-AML2; settings: OCI-AML2, acute myeloid leukemia; 72 hr, MTS
Method: as §1

[17] = system: RPMI 8226; settings: RPMI 8226, myeloma; 72 hr, MTS
Method: as §1

[18] = system: Jurkat clone E6-1; settings: Jurkat clone E6-1, acute lymphoblastic leukemia; 72 hr, MTS
Method: as §1

[19] = system: KCL-22; settings: KCL-22, chronic myeloid leukemia; 72 hr, MTS
Method: as §1

[20] = system: Daudi; settings: Burkitt's lymphoma, 72 hr, MTS
Method: as §1

[21] = system: Namalwa; settings: Burkitt's lymphoma, 72 hr, MTS
Method: as §1

[22] = system: CCRF-CEM; settings: acute lymphoblastic leukemia, 72 hr, MTS
Method: as §1

[23] = system: p21waf1,cip1 deficient cells as compared to the parental HCT-116 cells; settings: p21waf1,cip1 deficient cells vs parental HCT-116 cells; cited from earlier work

Cn1cc(CNCC2CCN(c3ncc(C(=O)NO)cn3)CC2)c2ccccc21 [JNJ 26481585]
concentration when start of induction of acetylation of tubulin and induction of Hsp 70 is observed [1]: 30 nM
concentration when induction of acetylation of histone H3 and H4 and induction of p21waf1,cip1 is observed [2]: 10 nM

O=C(NO)c1cnc(N2CCN(S(=O)(=O)c3ccc4ccccc4c3)CC2)nc1 [R306465]
mean IC40 (concentration required to reach 40% inhibition of cell proliferation) [3]: 165.89 nM
mean IC40 (concentration required to reach 40% inhibition of cell proliferation) [4]: 446.29 nM
concentration when start of induction of acetylation of tubulin and induction of Hsp 70 is observed [1]: 1000 nM
concentration when induction of acetylation of histone H3 and H4 and induction of p21waf1,cip1 is observed [2]: 100 nM
mean IC40 (concentration required to reach 40% inhibition of cell proliferation) [5]: 221.09 nM
mean IC40 (concentration required to reach 40% inhibition of cell proliferation) [6]: 66.08 nM
mean IC40 (concentration required to reach 40% inhibition of cell proliferation) [7]: 15.67 nM
mean IC40 (concentration required to reach 40% inhibition of cell proliferation) [8]: 207.27 nM
mean IC40 (concentration required to reach 40% inhibition of cell proliferation) [9]: 155.83 nM
mean IC40 (concentration required to reach 40% inhibition of cell proliferation) [10]: 154.68 nM
mean IC40 (concentration required to reach 40% inhibition of cell proliferation) [11]: 486.62 nM
mean IC40 (concentration required to reach 40% inhibition of cell proliferation) [12]: 86.76 nM
mean IC40 (concentration required to reach 40% inhibition of cell proliferation) [13]: 80.76 nM
mean IC40 (concentration required to reach 40% inhibition of cell proliferation) [14]: 170.59 nM
mean IC40 (concentration required to reach 40% inhibition of cell proliferation) [15]: 26.33 nM
mean IC40 (concentration required to reach 40% inhibition of cell proliferation) [16]: 267.92 nM
mean IC40 (concentration required to reach 40% inhibition of cell proliferation) [17]: 37.59 nM
mean IC40 (concentration required to reach 40% inhibition of cell proliferation) [18]: 56.19 nM
mean IC40 (concentration required to reach 40% inhibition of cell proliferation) [19]: 89.88 nM
mean IC40 (concentration required to reach 40% inhibition of cell proliferation) [20]: 454.11 nM
mean IC40 (concentration required to reach 40% inhibition of cell proliferation) [21]: 49.25 nM
mean IC40 (concentration required to reach 40% inhibition of cell proliferation) [22]: 78.79 nM

O=C(CCCCCCC(=O)Nc1ccccc1)NO [SAHA, suberoylanilide hydroxamic acid]
concentration when start of induction of acetylation of tubulin and induction of Hsp 70 is observed [1]: 100 nM
concentration when induction of acetylation of histone H3 and H4 and induction of p21waf1,cip1 is observed [2]: 3000 nM

CC(/C=C/C(=O)NO)=C\[C@@H](C)C(=O)c1ccc(N(C)C)cc1 [trichostatin A]
increase in resistance to the HDAC inhibitor [23]: 6 fold
